Among the data in US6608062B1 (dated 2003) are melting point values, retold here.

As for `Cc1nnc(-c2ccccc2)c2nc(OCc3ncnn3C)c(C3CCC3)n12`, the melting point (as a rule, the temperature of the solid-liquid transition) was found to be 160 °C.

For the compound `Cn1ncnc1COc1nc2c(-c3ccccc3)nncn2c1-c1cccc(Cl)c1`, the melting point fell in the range of 80 to 84 °C.

As for `Cn1ncnc1COc1nc2c(-c3ccc(F)cc3)nncn2c1-c1ccccc1`, the melting point amounted to 130 °C.

For the compound `Cn1ncnc1COc1nc2c(-c3ccccc3F)nncn2c1-c1ccccc1`, the melting point worked out at 195 °C.

On to `CCn1ncnc1COc1nc2c(-c3ccccc3)nnc(C)n2c1C1CCCC1`, for which the melting point lay in the range of 94 to 96 °C.

As to `Cc1nnc(-c2ccccc2)c2nc(OCc3ncnn3C)c(C3CCCC3)n12`, the melting point is 137 °C.

`Cn1ncnc1COc1nc2c(-c3ccccc3F)nncn2c1C1CCC1` gave a melting point of 120 °C.

In the case of `Cn1ncnc1COc1nc2c(-c3ccccc3)nncn2c1-c1ccccc1` (hydrate or solvate), the melting point amounted to 179 °C.

`Cn1ncnc1COc1nc2c(-c3cc(F)ccc3F)nncn2c1-c1ccccc1` had a melting point of 200 °C.

Compound `Cn1ncnc1COc1nc2c(-c3c(F)cccc3F)nncn2c1-c1ccccc1` yielded a melting point of 190 °C.

`Cn1cnc(COc2nc3c(-c4ccccc4F)nncn3c2-c2ccccc2)n1` displayed a melting point of 186 °C.
